Experimental findings from patent US8338468B2, “Microbicidal composition” (ISP Investments Inc., priority 2005, dated 2012) are described below.

The structures appear in SMILES notation. Values joined by “and” are separate entries in the source; they are usually repeats but may differ in a detail not shown here. Equal values may be shown once. Read-outs that look alike come from different tables or passages of the source.

Holding throughout (experiment): Synergy test (MIC) in Ringer's Solution
Assay type in all cases: cell-based

Assay [1] has as its system Aspergillus niger. The following applies: 30° C., about 10^5 microbes per ml; for MIC: Aspergillus niger. The protocol:
(§1) Synergy tests were conducted using microbiological standard methods. Ringer's Solution (Merck, VWR) was used for testing bacteria, yeast and mould species. In jars 100 ml aliquots of sterile Ringer Solution are dosed with the preservatives and a known inoculum of the single test species is added. A control sample containing no preservative is also used to ascertain the biocide effect on the inoculum. The prepared jars were incubated at 30° C. Aliquots are streaked out at regular intervals on specific nutrient agar so that an estimate of kill time can be determined at the same time as effective concentration. TSA (tryptic soy agar) was used for bacteria; MEA (malt extract agar) was used for yeast and moulds. The plates were visually evaluated for microbial growth to determine the MIC after various incubation times at 30° C. The synergy of the combinations of the present invention was determined against four bacteria, Pseudomonas aeruginosa, Escherichia coli, Proteus Mirabilis, and Staphylococcus aureus, a yeast, Candida albicans and two moulds Trichoderma viride and Aspergillus niger. The single micro-organisms were used at a concentration of about 10^5 microbes per ml. these micro-organisms are standard reference organisms and representative of natural contaminants in many consumer and industrial applications. […] In each test first component (A) was MIT and the second component was phenylethylalcohol (B).

Assay [2] relates to Candida albicans. To be noted: 30° C., about 10^5 microbes per ml; for MIC: Candida albicans. The protocol: as §1
For assay [3], the system named is Escherichia coli. To be noted: 30° C., about 10^5 microbes per ml; for MIC: Escherichia coli. The protocol: as §1
Assay [4] relates to Proteus Mirabilis. The following applies: 30° C., about 10^5 microbes per ml; for MIC: Proteus mirabilis. The protocol:
as §1

For assay [5], the system named is Pseudomonas aeruginosa. The following applies: 30° C., about 10^5 microbes per ml; for MIC: Pseudomonas aeruginosa. The protocol:
as §1

The test system of assay [6] is Staphylococcus aureus. The following applies: 30° C., about 10^5 microbes per ml; for MIC: Staphylococcus aureus. The protocol: as §1
The test system of assay [7] is Trichoderma viride. The following applies: 30° C., about 10^5 microbes per ml; for MIC: Trichoderma viride. The protocol:
as §1

Setting [8] is: MIT alone, Test 1 single, Test 2.1-2.3 parallel samples, read-out: QA, ppm MIT acting alone, which produced an end point (MIC).
Setting [9] is: MIT alone, Test 1 single, Test 2.1-2.3 parallel samples.
Where [10] appears, read: phenylethylalcohol alone, read-out: QB, ppm phenylethylalcohol acting alone, which produced an end point (MIC).

For the molecule `Cn1sccc1=O` [MIT, 2-methyl-3-isothiazolone], the MIC (commonly the lowest concentration found to suppress growth) was found to be 50 mg/L in assay [1] (setting [8]); 50 mg/L in assay [2] (setting [8]); 25 mg/L in assay [3] (setting [8]); 50 mg/L in assay [4] (setting [8]); 50 mg/L in assay [5] (setting [8]); 75 mg/L in assay [6] (setting [8]). The MIC in assay [7] (setting [8]) was 75 mg/L. The “QA, ppm MIT acting alone, which produced an end point (MIC)” value in assay [3] (setting [9]) is on record as 50 ppm; in assay [4] (setting [9]) it was 25 ppm; in assay [5] (setting [9]) it was 25 ppm; in assay [6] (setting [9]) it was 50 ppm; in assay [7] (setting [9]) it was 50 ppm.
As to `OCCc1ccccc1` [phenylethylalcohol], the MIC in assay [1] (setting [10]) turned out to be 1500 mg/L; in assay [2] (setting [10]), 2000 mg/L; in assay [3] (setting [10]), 2500 mg/L; in assay [4] (setting [10]) it was 2000 mg/L; in assay [5] (setting [10]) it was 2000 mg/L; in assay [6] (setting [10]), 2000 mg/L. Further, in assay [7] (setting [10]), the minimal inhibitory concentration (MIC) came to 2000 mg/L. Also, the “QB, ppm phenylethylalcohol acting alone, which produced an end point (MIC)” value in assay [1] (phenylethylalcohol alone) is 2000 ppm; in assay [2] (phenylethylalcohol alone), 2500 ppm and 1500 ppm; in assay [3] (phenylethylalcohol alone), 2000 ppm; in assay [5] (phenylethylalcohol alone) it was 2500 ppm; in assay [6] (phenylethylalcohol alone), 1500 ppm; in assay [7] (phenylethylalcohol alone) it was 3000 ppm.
